Values of other authors, collected in patent US12419901B2, “Prodrugs of deoxynucleosides for treatment of diseases caused by unbalanced nucleotide pools” (UCB BIOSCIENCES, INC., priority 2018, dated 2025).

Tested on: dGK deficient patient derived fibroblasts
Settings: 50 μM in cell culture medium, quiescent dGK-deficient fibroblasts

## Nc1nc2c(ncn2[C@H]2C[C@H](O)[C@@H](CO)O2)c(=O)[nH]1 [dGuo, deoxyguanosine]
  mtDNA depletion (previously demonstrated): sufficient to prevent this depletion
